Results reported in US12521393B2, “Cytotoxicity targeting chimeras for CCR2-expressing cells” (GLAXOSMITHKLINE INTELLECTUAL PROPERTY DEVELOPMENT LIMITED, priority 2021, dated 2026).

Key:
[1] = test system: endogenous target monocytes in human PBMC; experiment: PBMC ex vivo monocyte depletion flow cytometry assay (Example 200); assay type: cell-based; settings: with anti-cotinine antibody (SEQ ID NO: 11/12), 18-24 hours, EC50 in molar, read-out: Ex Vivo Depletion Assay pEC50 (converted)
In short: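 Monocyte depletion is reported as pEC50, averaged or given individually across runs, and read by flow cytometry staining CD45, CD14 and CD4 with a viability dye. Compounds, diluted four-fold over 11 points from 1 mM DMSO stocks, were combined with 30 μg/mL Fc-enhanced anti-cotinine antibody and human PBMC, then incubated 18-24 h at 37° C.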

[2] = molecular target: human alpha1 nicotinic acetylcholine (nACh) receptor (Homo sapiens, UniProt P02708); experiment: Nicotinic acetylcholine receptor antagonism assay, IONFlux automated patch clamp (Example 203); assay type: cell-based; settings: for IC50: antagonism of ACh-stimulated human alpha1 nAChR current, patch clamp; for Emax at 100 µM: maximum percentage antagonism at maximum concentration tested 100 μM; for Emax at 10 µM: maximum percentage antagonism at maximum concentration tested 10 μM
In short: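 Cells expressing human α1 nAChR were incubated with a compound dose response (top 10 μM or 100 μM), then stimulated with ACh (10 mM), and peak current was read by automated patch clamp. % inhibition was taken against ACh-alone control, corrected for vehicle and run-down, and fit non-linearly for IC50; runs were averaged.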

Sequence of human alpha1 nicotinic acetylcholine (nACh) receptor (P02708 21-457): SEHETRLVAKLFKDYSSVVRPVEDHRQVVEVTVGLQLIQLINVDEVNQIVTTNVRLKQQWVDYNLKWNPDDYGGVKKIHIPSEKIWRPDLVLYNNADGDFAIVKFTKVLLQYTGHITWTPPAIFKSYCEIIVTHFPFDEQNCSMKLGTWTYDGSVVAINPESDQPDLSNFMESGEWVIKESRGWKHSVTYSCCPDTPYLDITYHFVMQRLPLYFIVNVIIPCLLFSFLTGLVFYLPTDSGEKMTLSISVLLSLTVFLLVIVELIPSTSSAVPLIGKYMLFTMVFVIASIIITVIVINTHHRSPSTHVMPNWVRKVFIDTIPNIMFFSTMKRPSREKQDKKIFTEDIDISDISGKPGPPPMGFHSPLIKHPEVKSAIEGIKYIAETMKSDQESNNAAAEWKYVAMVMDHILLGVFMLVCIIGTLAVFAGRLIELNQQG
Sequence of human alpha1 nicotinic acetylcholine (nACh) receptor (P11230 24-501 partner): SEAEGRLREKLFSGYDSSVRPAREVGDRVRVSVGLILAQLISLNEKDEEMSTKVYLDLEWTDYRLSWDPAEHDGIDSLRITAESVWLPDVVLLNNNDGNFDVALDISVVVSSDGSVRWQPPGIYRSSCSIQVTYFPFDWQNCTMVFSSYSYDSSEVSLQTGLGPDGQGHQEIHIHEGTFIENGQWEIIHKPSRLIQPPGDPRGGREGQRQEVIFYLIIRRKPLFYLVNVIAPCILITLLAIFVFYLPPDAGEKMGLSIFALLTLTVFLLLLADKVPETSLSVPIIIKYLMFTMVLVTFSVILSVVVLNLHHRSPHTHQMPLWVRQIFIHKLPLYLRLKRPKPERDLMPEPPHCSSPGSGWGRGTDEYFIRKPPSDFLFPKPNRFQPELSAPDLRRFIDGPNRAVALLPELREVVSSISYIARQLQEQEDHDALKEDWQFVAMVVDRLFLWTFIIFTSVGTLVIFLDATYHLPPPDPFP
Sequence of human alpha1 nicotinic acetylcholine (nACh) receptor (Q07001 22-517 partner): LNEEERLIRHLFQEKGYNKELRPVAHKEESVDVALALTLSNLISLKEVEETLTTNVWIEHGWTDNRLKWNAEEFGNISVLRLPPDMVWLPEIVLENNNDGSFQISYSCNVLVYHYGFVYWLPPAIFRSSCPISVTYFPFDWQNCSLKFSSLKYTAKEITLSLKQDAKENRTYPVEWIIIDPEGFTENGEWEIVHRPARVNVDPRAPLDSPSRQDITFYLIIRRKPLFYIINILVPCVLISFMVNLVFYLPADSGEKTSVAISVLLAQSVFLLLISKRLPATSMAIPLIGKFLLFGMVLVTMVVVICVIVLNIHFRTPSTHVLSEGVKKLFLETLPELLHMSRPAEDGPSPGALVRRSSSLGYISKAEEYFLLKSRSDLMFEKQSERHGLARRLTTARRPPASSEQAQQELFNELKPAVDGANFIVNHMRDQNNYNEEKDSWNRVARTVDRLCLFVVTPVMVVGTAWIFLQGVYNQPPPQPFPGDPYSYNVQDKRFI

Compound	EC50 [1] [nM]	IC50 [2] [nM]	Emax at 100 µM ([2]; read-out: Maximum Response) [%]	Emax at 10 µM ([2]; read-out: Maximum Response) [%]	Emax at 33.33 µM ([2]; maximum percentage antagonism at maximum concentration tested 33.33 μM, read-out: Maximum Response) [%]	Emax at 11.11 µM ([2]; maximum percentage antagonism at maximum concentration tested 11.11 μM, read-out: Maximum Response) [%]	Emax at 30 µM ([2]; maximum percentage antagonism at maximum concentration tested 30 μM, read-out: Maximum Response) [%]
CCN1C(=O)C[C@H](C(=O)NCCOCCOCCOCCC(=O)N[C@H]2CC[C@@H](C(=O)N[C@@H]3C[C@H](N(C)C(C)C)CC[C@@H]3N3CC[C@H](Nc4ncnc5ccc(C(F)(F)F)cc45)C3=O)CC2)[C@H]1c1cccnc1 [Example 34, (2S,3S)-1-ethyl-N-(2-(2-(2-(3-((cis-4-(((1R,2S,5R)-5-(isopropyl(methyl)amino)-2-((S)-2-oxo-3-((6-(trifluoromethyl)quinazolin-4-yl)amino)pyrrolidin-1-yl)cyclohexyl)carbamoyl)cyclohexyl)amino)-3-oxopropoxy)ethoxy)ethoxy)ethyl)-5-oxo-2-(pyridin-3-yl)pyrrolidine-3-carboxamide]	1.58	28500	79.2	–	–	–	–
CCN1C(=O)C[C@H](C(=O)NCCOCCOCCOCCC(=O)N[C@H]2CC[C@@H](C(=O)N[C@@H]3C[C@H](NC(C)(C)C)CC[C@@H]3N3CC[C@H](Nc4ncnc5ccc(C(F)(F)F)cc45)C3=O)CC2)[C@H]1c1cccnc1 [Example 35, (2S,3S)-N-(2-(2-(2-(3-(((1S,4s)-4-(((1R,2S,5R)-5-(tert-butylamino)-2-((S)-2-oxo-3-((6-(trifluoromethyl)quinazolin-4-yl)amino)pyrrolidin-1-yl)cyclohexyl)carbamoyl)cyclohexyl)amino)-3-oxopropoxy)ethoxy)ethoxy)ethyl)-1-ethyl-5-oxo-2-(pyridin-3-yl)pyrrolidine-3-carboxamide]	0.631	89200	52.3	–	–	–	–
CN1C(=O)C[C@H](C(=O)NCCOCCOCCOCCOCCOCCC(=O)N[C@@H]2C[C@H](NC(C)(C)C)CC[C@@H]2N2CC[C@H](Nc3ncnc4ccc(C(F)(F)F)cc34)C2=O)[C@H]1c1cccnc1 [Example 37, (2S,3S)-N-(18-(((1R,2S,5R)-5-(tert-Butylamino)-2-((S)-2-oxo-3-((6-(trifluoromethyl)quinazolin-4-yl)amino)pyrrolidin-1-yl)cyclohexyl)amino)-18-oxo-3,6,9,12,15-pentaoxaoctadecyl)-1-methyl-5-oxo-2-(pyridin-3-yl)pyrrolidine-3-carboxamide]	5.01	≥ 10000	–	7.3	–	–	–
CN1C(=O)C[C@H](C(=O)NCCOCCOCCOCCOCCOCCOCCC(=O)N[C@@H]2C[C@H](NC(C)(C)C)CC[C@@H]2N2CC[C@H](Nc3ncnc4ccc(C(F)(F)F)cc34)C2=O)[C@H]1c1cccnc1 [Example 38, (2S,3S)-N-(21-(((1R,2S,5R)-5-(tert-Butylamino)-2-((S)-2-oxo-3-((6-(trifluoromethyl)quinazolin-4-yl)amino)pyrrolidin-1-yl)cyclohexyl)amino)-21-oxo-3,6,9,12,15,18-hexaoxahenicosyl)-1-methyl-5-oxo-2-(pyridin-3-yl)pyrrolidine-3-carboxamide]	1.58	≥ 10000	–	-2.2	–	–	–
CC(C)N(C)[C@@H]1CC[C@H](N2CC[C@H](Nc3ncnc4ccc(C(F)(F)F)cc34)C2=O)[C@H](NC(=O)CCOCCOCCOCCOCCOCCNC(=O)[C@H]2CC(=O)N(C)[C@@H]2c2cccnc2)C1 [Example 40, (2S,3S)-N-(18-(((1R,2S,5R)-5-(Isopropyl(methyl)amino)-2-((S)-2-oxo-3-((6-(trifluoromethyl)quinazolin-4-yl)amino)pyrrolidin-1-yl)cyclohexyl)amino)-18-oxo-3,6,9,12,15-pentaoxaoctadecyl)-1-methyl-5-oxo-2-(pyridin-3-yl)pyrrolidine-3-carboxamide]	5.01	≥ 10000	–	24.7	–	–	–
CC(C)N(C)[C@@H]1CC[C@H](N2CC[C@H](Nc3ncnc4ccc(C(F)(F)F)cc34)C2=O)[C@H](NC(=O)CCOCCOCCOCCOCCOCCOCCNC(=O)[C@H]2CC(=O)N(C)[C@@H]2c2cccnc2)C1 [Example 41, (2S,3S)-N-(21-(((1R,2S,5R)-5-(isopropyl(methyl)amino)-2-((S)-2-oxo-3-((6-(trifluoromethyl)quinazolin-4-yl)amino)pyrrolidin-1-yl)cyclohexyl)amino)-21-oxo-3,6,9,12,15,18-hexaoxahenicosyl)-1-methyl-5-oxo-2-(pyridin-3-yl)pyrrolidine-3-carboxamide]	2.51	≥ 10000	–	20.1	–	–	–
CC(C)N(C)[C@@H]1CC[C@H](N2CC[C@H](Nc3ncnc4ccc(C(F)(F)F)cc34)C2=O)[C@H](NC(=O)C2CCC(NC(=O)CCOCCNC(=O)CCOCCNC(=O)[C@H]3CC(=O)N(C)[C@@H]3c3cccnc3)CC2)C1 (stereo partly drawn) [Example 48, (2S,3S)-N-(2-(3-((2-(3-(((1R,4r)-4-(((1R,2S,5R)-5-(Isopropyl(methyl)amino)-2-((S)-2-oxo-3-((6-(trifluoromethyl)quinazolin-4-yl)amino)pyrrolidin-1-yl)cyclohexyl)carbamoyl)cyclohexyl)amino)-3-oxopropoxy)ethyl)amino)-3-oxopropoxy)ethyl)-1-methyl-5-oxo-2-(pyridin-3-yl)pyrrolidine-3-carboxamide]	2	31800	77	–	–	–	–
CC(C)N(C)[C@@H]1CC[C@H](N2CC[C@H](Nc3ncnc4ccc(C(F)(F)F)cc34)C2=O)[C@H](NC(=O)[C@H]2C[C@@H](NC(=O)CCOCCOCCNC(=O)CCNC(=O)[C@H]3CC(=O)N(C)[C@@H]3c3cccnc3)C2)C1 [Example 49, (2S,3S)-N-(3-((2-(2-(3-(((1S,3s)-3-(((1R,2S,5R)-5-(Isopropyl(methyl)amino)-2-((S)-2-oxo-3-((6-(trifluoromethyl)quinazolin-4-yl)amino)pyrrolidin-1-yl)cyclohexyl)carbamoyl)cyclobutyl)amino)-3-oxopropoxy)ethoxy)ethyl)amino)-3-oxopropyl)-1-methyl-5-oxo-2-(pyridin-3-yl)pyrrolidine-3-carboxamide]	0.501	80300	56.7	–	–	–	–
CC(C)N(C)[C@@H]1CC[C@H](N2CC[C@H](Nc3ncnc4ccc(C(F)(F)F)cc34)C2=O)[C@H](NC(=O)[C@H]2CC[C@@H](NC(=O)CCCO[C@H]3CC[C@H](NC(=O)CCNC(=O)[C@@H]4CC(=O)N(C)[C@H]4c4cccnc4)CC3)CC2)C1 [Example 52, (2S,3S)-N-(3-(((1R,4S)-4-(4-(((1S,4S)-4-(((1R,2S,5R)-5-(Isopropyl(methyl)amino)-2-((S)-2-oxo-3-((6-(trifluoromethyl)quinazolin-4-yl)amino)pyrrolidin-1-yl)cyclohexyl)carbamoyl)cyclohexyl)amino)-4-oxobutoxy)cyclohexyl)amino)-3-oxopropyl)-1-methyl-5-oxo-2-(pyridin-3-yl)pyrrolidine-3-carboxamide]	0.2	33300	–	–	8.3	–	–
CC(C)N(C)[C@@H]1CC[C@H](N2CC[C@H](Nc3ncnc4ccc(C(F)(F)F)cc34)C2=O)[C@H](NC(=O)[C@H]2CC[C@H](NC(=O)CCOC[C@H]3CC[C@H](COCCNC(=O)[C@H]4CC(=O)N(C)[C@@H]4c4cccnc4)CC3)CC2)C1 [Example 53, (2S,3S)-N-(2-(((1R,4S)-4-((3-(((1R,4R)-4-(((1R,2S,5R)-5-(Isopropyl(methyl)amino)-2-((S)-2-oxo-3-((6-(trifluoromethyl)quinazolin-4-yl)amino)pyrrolidin-1-yl)cyclohexyl)carbamoyl)cyclohexyl)amino)-3-oxopropoxy)methyl)cyclohexyl)methoxy)ethyl)-1-methyl-5-oxo-2-(pyridin-3-yl)pyrrolidine-3-carboxamide]	0.631	≥ 11100	–	–	–	10	–
CC(C)N(C)[C@@H]1CC[C@H](N2CC[C@H](Nc3ncnc4ccc(C(F)(F)F)cc34)C2=O)[C@H](NC(=O)[C@H]2CC[C@H](NC(=O)CCCOC[C@H]3CC[C@@H](COCCNC(=O)[C@H]4CC(=O)N(C)[C@@H]4c4cccnc4)CC3)CC2)C1 [Example 57, (2S,3S)-N-(2-(((1S,4R)-4-((4-(((1R,4R)-4-(((1R,2S,5R)-5-(Isopropyl(methyl)amino)-2-((S)-2-oxo-3-((6-(trifluoromethyl)quinazolin-4-yl)amino)pyrrolidin-1-yl)cyclohexyl)carbamoyl)cyclohexyl)amino)-4-oxobutoxy)methyl)cyclohexyl)methoxy)ethyl)-1-methyl-5-oxo-2-(pyridin-3-yl)pyrrolidine-3-carboxamide]	1.58	≥ 30000	–	–	–	–	47.6
CC(C)N(C)[C@@H]1CC[C@H](N2CC[C@H](Nc3ncnc4ccc(C(F)(F)F)cc34)C2=O)[C@H](NC(=O)[C@H]2CC[C@@H](CC(=O)CCCOC[C@H]3CC[C@H](COCCNC(=O)[C@H]4CC(=O)N(C)[C@@H]4c4cccnc4)CC3)CC2)C1 [Example 60, (2S,3S)-N-(2-(((1R,4S)-4-(((5-((1S,4S)-4-(((1R,2S,5R)-5-(Isopropyl(methyl)amino)-2-((S)-2-oxo-3-((6-(trifluoromethyl)quinazolin-4-yl)amino)pyrrolidin-1-yl)cyclohexyl)carbamoyl)cyclohexyl)-4-oxopentyl)oxy)methyl)cyclohexyl)methoxy)ethyl)-1-methyl-5-oxo-2-(pyridin-3-yl)pyrrolidine-3-carboxamide]	0.631	≥ 10000	–	18.2	–	–	–
